Experiments:
[1] = system: S. lividans C37; test: Metabolism of 10001 in growing culture, HPLC of supernatant (Example 4); assay type: in vitro ADME, Streptomyces lividans; settings: 0.12 mg/ml 10001 in culture
Method: Herbicides and their metabolites are measured by HPLC as described by Romesser et al., BBRC 140: 650-659 (1986), herein incorporated by reference, except that 0.1% H3 PO4 is used in both solvents. Chromatographic identity and quantitation of the herbicides and their resulting metabolites is determined by comparing them chromatographically with authentic standard compounds. Identity of the resulting metabolites is also confirmed by UV spectroscopy.
Separate cultures (50 ml) inoculated with S. lividans C37, S. lividans transformed with pCAO400 or S. lividans transformed with pCAO401 in sporulation broth containing 0.12 mg/ml of 10001 were grown with shaking at 30° C. Aliquots (1.5 ml) of each culture were removed at 24, 32, 48 and 56 hours after inoculation and the supernatant of each aliquot was analyzed by HPLC for its concentration of 10001 and its metabolites 10002 or 10003.

[2] = system: S. griseus PH4001; test: Metabolism of 10001 by untransformed strain (Example 14); assay type: in vitro ADME, Streptomyces griseus; settings: substrate 10001 120 ug/ml
[3] = system: Tomato seedlings (Lysopersicon esculentum cv. Pixie); test: Tomato transplants in sulfonylurea-treated soil after dipping in water, YEME or S. lividans culture (Example 13); assay type: in vivo; settings: for Mean value of visual ratings / Visual Injury Ratings of individual transplanted tomatoes: 19 DAT
Method: A 2 liter culture of S. lividans pCAO200SU1-FeS-B#9 was grown in YEME medium at 30° C. until the culture was in […] log phase of growth and the absorbance in a spectrophotometer at a wavelength of 600 nm was between about 1.0 and 1.3. Tomato seedlings (Lysopersicon esculentum cv. "Pixie") were seeded directly into soiless media, Oasis Wedges® (Smithers-Oasis, Kent, Ohio), fertilized with 500 ppm Peters'® fertilizer (20:19:18); and 300 ppm of iron was added weekly. As the tomato plants develop, roots ramify through the Oasis Wedges®. The tomato plants were transplanted to pots when they were 4 inches tail as follows.
Five inch standard round pots (without holes) were filled with Sassafras sandy loam (pH 6.7, 0.8% OM) and an oasis cube. The contents of the each pot was sprayed, prior to transplanting the tomato plants, with either 10001, in 25% dry flowable composition (25 DF) or 10010, 75 DF at rates of 16, 32, 64, 125 or 250 grams of active ingredient per hectare (g ai/ha). The Oasis cube was then removed and replaced by another containing a transplant tomato plant dipped in either water (treatment A), YEME medium (treatment B)-or the culture of S. lividans pCAO200SU1-FeS-B#9 described above (treatment C). Six transplant tomato plants received each of the three treatments, and five transplant tomato plants (to serve as controls) received no treatment. The resulting tomato plants were grown in a greenhouse for 19 days and watered twice daily, after which they were evaluated for visual injury (100=complete kill, other numbers=percentage of injury relative to controls [subjectively determined], 0=no injury) with respect to the water dipped, no-herbicide control treatments. The plants were left in the greenhouse for one more week after which the fresh weights of the shoots of the plants were determined. The roots of the plants which received these treatments and controls were examined too.

[4] = system: transgenic Nicotiana tabacum cv. Xanthi plants; test: In vitro pollen germination after spraying 10015 on tobacco with anther-specific P450SU1 (Example 28); assay type: in vivo
Method: Application of compound 10015 was as follows. The tapetal cells of the anther surround the developing pollen and are instrumental in supporting the development of mature pollen. Thus production of a toxin in the tapetal cells was expected to disrupt the development of normal mature pollen. The nontoxic compound 10015 was sprayed onto flowering transgenic plants that had anther-specific expression of P450SU1 mRNA. […] The 10015 was first dissolved in up to 0.8 ml of 0.01 N ammonium hydroxide and then diluted into AGWT (90.2% Acetone:4.8% Glycerol:4.8% Water:0.24% Tween 20 by volume). Little effect was seen when rates of less than 32 g/ha were applied. At 32 g/ha and above, effects were seen on the ability of pollen to germinate in vitro. Newly opened buds were collected at time intervals between four and 23 days after spraying. The anthers were removed and pollen was brushed into Brewbaker and Kwak medium (15% sucrose, 200 ppm calcium nitrate, 100 ppm boric acid). Growth of tubes from the pollen, indicating germination, was assessed after four hours of incubation by microscopic observation.

[5] = 32 g ai/ha, Treatment A (water), scale 0-100
[6] = 64 g ai/ha, Treatment A (water), scale 0-100
[7] = 64 g ai/ha, Treatment C (pCAO200SU1-FeS-B#9), scale 0-100
[8] = 125 g ai/ha, Treatment A (water), scale 0-100

COc1cc(Cl)nc(NC(=O)NS(=O)(=O)c2ccccc2C(=O)O)n1 [compound 10003, N-[(4-chloro-6-methoxy-pyrimidin-2-yol)aminocarbonyl]-2-carboxybenzenesulfonamide]
concentration in supernatant ([1]; 0 h): 0 nM | concentration in supernatant ([1]; 24 h): 0 nM | concentration in supernatant ([1]; 32 h): 0 nM | concentration in supernatant ([1]; 48 h): 3000 nM | concentration in supernatant ([1]; 56 h): 3000 nM | concentration in supernatant ([2]; 1.0 h): 1000 nM | concentration in supernatant ([2]; 4.0 h): 4000 nM

COC(=O)c1ccccc1S(=O)(=O)NC(=O)Nc1nc(C)cc(C)n1 [compound 10010, N-[(4,6-dimethylpyrimidin-2-yl)aminocarbonyl]-2-methoxycarbonylbenzenesulfonamide]
Mean Shoot Fresh Weights ([3]; 16 g ai/ha, Treatment A (water)): 1.28 grams | Mean value of visual ratings ([3]; 16 g ai/ha, Treatment A (water), scale 0-100): 70.0 | Mean Shoot Fresh Weights ([3]; 16 g ai/ha, Treatment B (YEME)): 1.58 grams | Mean value of visual ratings ([3]; 16 g ai/ha, Treatment B (YEME), scale 0-100): 63.3 | Mean Shoot Fresh Weights ([3]; 16 g ai/ha, Treatment C (pCAO200SU1-FeS-B#9)): 2.10 grams | Mean value of visual ratings ([3]; 16 g ai/ha, Treatment C (pCAO200SU1-FeS-B#9), scale 0-100): 60 | Mean Shoot Fresh Weights ([3]; 32 g ai/ha, Treatment A (water)): 0.65 grams | Mean value of visual ratings [3, 5]: 93.3 | Visual Injury Ratings of individual transplanted tomatoes [3, 5]: 100,100,100 | Mean Shoot Fresh Weights ([3]; 32 g ai/ha, Treatment B (YEME)): 1.60 grams | Mean value of visual ratings ([3]; 32 g ai/ha, Treatment B (YEME), scale 0-100): 66.7 | Mean Shoot Fresh Weights ([3]; 32 g ai/ha, Treatment C (pCAO200SU1-FeS-B#9)): 1.79 grams | Mean value of visual ratings ([3]; 32 g ai/ha, Treatment C (pCAO200SU1-FeS-B#9), scale 0-100): 56.7 | Mean value of visual ratings [3, 6]: 90.0 | Visual Injury Ratings of individual transplanted tomatoes [3, 6]: 80,100,100 | Mean value of visual ratings ([3]; 64 g ai/ha, Treatment B (YEME), scale 0-100): 83.3 | Mean value of visual ratings [3, 7]: 86.7 | Visual Injury Ratings of individual transplanted tomatoes [3, 7]: 60,100,100 | Mean value of visual ratings [3, 8]: 91.7 | Visual Injury Ratings of individual transplanted tomatoes [3, 8]: 90,100,100 | Mean value of visual ratings ([3]; 125 g ai/ha, Treatment B (YEME), scale 0-100): 83.3 | Mean value of visual ratings ([3]; 125 g ai/ha, Treatment C (pCAO200SU1-FeS-B#9), scale 0-100): 76.7 | Visual Injury Ratings of individual transplanted tomatoes ([3]; 250 g ai/ha, Treatment A (water), scale 0-100): 90,100,100 | Mean value of visual ratings ([3]; 250 g ai/ha, Treatment A (water), scale 0-100, 100 = complete kill): 95.0 | Mean value of visual ratings ([3]; 250 g ai/ha, Treatment B (YEME), scale 0-100): 86.7 | Mean value of visual ratings ([3]; 250 g ai/ha, Treatment C (pCAO200SU1-FeS-B#9), scale 0-100): 85 | visual injury across treatments A, B, C ([3]; all rates): injured to similar extents regardless of the treatment they received

COc1cc(OC)nc(NC(=O)NS(=O)(=O)c2cccc3c2S(=O)(=O)N(C(C)C)C3)n1 [compound 10015]
pollen germination in vitro ([4]; A-T-SU1 plants 41A and 56 A, 32 g/ha, 7 to 11 days after application): 0% | pollen germination in vitro ([4]; A-T-SU1 plants 41A and 56 A, 32 g/ha, through 18 days on one plant, 13 days on the other): less than 0.1% | pollen germination in vitro ([4]; plant 28A, 100 g/ha, 21 days): less than 0.1% | pollen germination in vitro ([4]; plant 38A, 100 g/ha, 14 days, varying between buds): 1-25%
